The test system of experiment [1] is Aβtotal. Briefly: In vivo efficacy, Method 1: brain soluble Aβtotal lowering 4 h after a single oral dose, ELISA (Table 4a). Details: species or system mouse. The note with it: dose 30 mg/kg oral dosing. An excerpt: (§1) To determine whether acute administration of an Aβ42 lowering agent would reduce Aβ42 levels in vivo, non-transgenic rodents, e.g. mice or rats were used. Alternatively, two to three month old Tg2576 mice expressing APP695 containing the “Swedish” variant can be used or a transgenic mouse model developed by Dr. Fred Van Leuven (K.U. Leuven, Belgium) and co-workers, with neuron-specific expression of a clinical mutant of the human amyloid precursor protein [V717I] (Moechars et al., 1999 J. Biol. Chem. 274, 6483). Young transgenic mice have high levels of Aβ in the brain but no detectable Aβ deposition. At approximately 6-8 months of age, the transgenic mice start to display spontaneous, progressive accumulation of β-amyloid (Aβ) in the brain, eventually resulting in amyloid plaques within the subiculum, hippocampus and cortex. Animals treated with the Aβ42 lowering agent were examined and compared to those untreated or treated with vehicle and brain levels of soluble Aβ42 and total Aβ would be quantitated by standard techniques, for example, using ELISA. Treatment periods varied from hours (h) to days and were adjusted based on the results of the Aβ42 lowering once a time course of onset of effect could be established.
(§2) A typical protocol for measuring Aβ42 lowering in vivo is shown but it is only one of many variations that could be used to optimize the levels of detectable Aβ. For example, Aβ42 lowering compounds were formulated in 20% of Captisol® (a sulfobutyl ether of β-cyclodextrin) in water or 20% hydroxypropyl cyclodextrin. The Aβ42 lowering agents were administered as a single oral dose or by any acceptable route of administration to overnight fasted animals. After 4 h, the animals were sacrificed and Aβ42 levels were analysed.
(§3) Blood was collected by decapitation and exsanguinations in EDTA-treated collection tubes. Blood was centrifuged at 1900 g for 10 minutes (min) at 4° C. and the plasma recovered and flash frozen for later analysis. The brain was removed from the cranium and hindbrain. The cerebellum was removed and the left and right hemisphere were separated. The left hemisphere was stored at −18° C. for quantitative analysis of test compound levels. The right hemisphere was rinsed with phosphate-buffered saline (PBS) buffer and immediately frozen on dry ice and stored at −80° C. until homogenization for biochemical assays.
(§4) Mouse brains were resuspended in 10 volumes of 0.4% DEA (diethylamine)/50 mM NaCl pH 10 (for non-transgenic animals) or 0.1% 3-[(3-cholamidopropyl)-dimethyl-ammonio]-1-propanesulfonate (CHAPS) in tris buffered saline (TBS) (for transgenic animals) containing protease inhibitors (Roche-11873580001 or 04693159001) per gram of tissue, e.g. for 0.158 g brain, add 1.58 ml of 0.4% DEA. All samples were sonicated for 30 seconds on ice at 20% power output (pulse mode). Homogenates were centrifuged at 221.300×g for 50 min. The resulting high speed supernatants were then transferred to fresh tubes and were optionally further purified before the next step. A portion of the supernatant was neutralized with 10% 0.5 M Tris-HCl and this was used to quantify Aβtotal.
To quantify the amount of Aβ42 in the soluble fraction of the brain homogenates, commercially available Enzyme-Linked-Immunosorbent-Assay (ELISA) kits were used (e.g. Innotest® β-Amyloid(1-42), Innogenetics N.V., Ghent, Belgium). The Aβ42 ELISA was performed using the plate provided with the kit only. Briefly, the standards (a dilution of synthetic Aβ1-42) were prepared in 1.5 ml Eppendorf tube in Ultraculture, with final concentrations ranging from 25000 to 1.5 pg/ml. Samples, standards and blanks (60 μl) were added to the anti-Aβ42-coated plate (the capture antibody selectively recognizes the C-terminal end of the antigen). The plate was allowed to incubate overnight at 4° C. in order to allow formation of the antibody-amyloid complex. […]
Background: ELISA stands for enzyme-linked immunosorbent assay.

The test system of experiment [2] is Aβ42. In words: γ-secretase-modulating activity, Method 2: Aβ42 Alphalisa in supernatant of SKNBE2 cells carrying APP 695-wild type (Table 3b). The experiment is classed as cell-based. To be noted: overnight. A digest of the protocol: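 SKNBE2 cells expressing wild-type APP695 were incubated overnight at 37° C. with test compound. Secreted Aβ42 was then measured by AlphaLISA, using a C-terminal Aβ42 antibody paired with an N-terminal Aβ antibody. IC50 came from a 4-parameter fit of percent of compound-free control.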
(Alpha assays give light when donor and acceptor beads are brought close together.)

Experiment [3] deals with Aβtotal. In words: γ-secretase-modulating activity, Method 2: Aβtotal Alphalisa in supernatant of SKNBE2 cells carrying APP 695-wild type (Table 3b). The experiment is classed as cell-based. The note with it: overnight, read-out: IC50 Aβtot. A digest of the protocol:
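SKNBE2 cells expressing wild-type APP 695 were incubated overnight at 37 °C, 5% CO2 with test compound at a range of concentrations. Aβtotal in supernatant was measured by AlphaLISA sandwich (N-terminal JRF/AβN/25 acceptor, biotinylated mid-region 4G8 donor); IC50 from 4-parameter fit of percent control versus log concentration.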

The test system of experiment [4] is Aβ42. In words: In vivo efficacy, Method 1: brain soluble Aβ42 lowering 4 h after a single oral dose, ELISA (Table 4a). Set-up: species or system mouse. To be noted: dose 30 mg/kg oral dosing.
Source text: as §1, §2, §3, §4
The obtained supernatants were purified with Water Oasis HLB reverse phase columns (Waters Corp., Milford, Mass.) to remove non-specific immunoreactive material from the brain lysates prior subsequent Aβ detection. Using a vacuum manifold, all solutions were passed through the columns at a rate of approximately 1 ml per min, so the vacuum pressure was adjusted accordingly throughout the procedure. Columns were preconditioned with 1 ml of 100% MeOH, before equilibration with 1 ml of H2O, Non-neutralized brain lysates were loaded onto the columns. The loaded samples were then washed twice with the first wash performed with 1 ml of 5% MeOH, and the second wash with 1 ml of 30% MeOH. Finally, the Aβ was eluted from the columns and into 100×30 mm glass tubes, with a solution of 90% MeOH with 2% NH4OH. […]

Where two headings read alike, the source gives them in different places.

Turning to `COc1cc(-c2nc(C(C)C)n(-c3cccc(C(F)(F)F)c3)n2)ccc1-n1cnc(C)c1.Cl` [Compound 32], the “Aβtotal (% Ctrl) _Mean” value in the experiment with Aβtotal [1] is listed as 2 % Ctrl. Also, the IC50 was 191 nM in the experiment on Aβ42 [2] and 6760 nM in the experiment with Aβtotal [3]. Also, the “Aβ42 (% Ctrl) _Mean” value in the experiment with Aβ42 [4] is recorded as 6 % Ctrl.
For the compound `COc1cc(-c2nc(-c3cccc(C(F)(F)F)c3)n(C(C)C)n2)ccc1-n1cnc(C)c1` [Compound 39], the “Aβtotal (% Ctrl) _Mean” value in the experiment with Aβtotal [1] was determined as 0 % Ctrl. Also, the IC50 in the experiment with Aβ42 [2] (Homo sapiens) was 105 nM; in the experiment with Aβtotal [3] (Homo sapiens), 7940 nM. In the experiment on Aβ42 [4], the “Aβ42 (% Ctrl) _Mean” value turned out to be 17 % Ctrl.
As for `COc1nc(-c2nc(-c3cccc(C(F)(F)F)c3)n(C(C)C)n2)ccc1-n1cnc(C)c1.Cl.Cl` [Compound 68], in the experiment with Aβtotal [1], the “Aβtotal (% Ctrl) _Mean” value is −3 % Ctrl. Further, the IC50 is 135 nM in the experiment with Aβ42 [2] and above 10000 nM with Aβtotal [3]. For the same compound, the “Aβ42 (% Ctrl) _Mean” value in the experiment on Aβ42 [4] was 29 % Ctrl.

For orientation: IC50 means the midpoint of a concentration-inhibition curve.

These data come from patent US8946266B2, “Substituted triazole and imidazole derivatives as gamma secretase modulators” (Janssen Pharmaceuticals, Inc., priority 2009, dated 2015).
